The record followed here is patent publication US20250002954A1, “Novel Compound, Use Thereof, and Method for Producing Same, and Compound-Containing Composition, Method for Producing 4-Trehalosamine, and Microorganism” (Microbial Chemistry Research Foundation, priority 2021, published 2025).

Assay [1] addresses T1, yeast alcohol dehydrogenase (ADH) (Saccharomyces cerevisiae, UniProt P00330).
T1 construct: purchased Oriental Yeast Co., Ltd
T1 sequence (P00330 1-348): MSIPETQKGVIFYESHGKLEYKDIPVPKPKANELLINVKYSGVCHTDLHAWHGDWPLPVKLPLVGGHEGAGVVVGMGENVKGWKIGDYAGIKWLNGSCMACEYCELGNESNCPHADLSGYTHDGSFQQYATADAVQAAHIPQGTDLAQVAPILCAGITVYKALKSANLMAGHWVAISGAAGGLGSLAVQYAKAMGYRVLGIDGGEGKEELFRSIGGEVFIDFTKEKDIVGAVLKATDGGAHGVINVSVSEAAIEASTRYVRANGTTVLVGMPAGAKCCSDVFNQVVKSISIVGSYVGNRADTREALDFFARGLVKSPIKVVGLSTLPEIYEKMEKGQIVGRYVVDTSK
Briefly: Evaluation of ADH-protective activity under freeze-dried condition. It is filed as biochemical. As to conditions: for ADH activity after freeze-drying: freeze-dried with 1% or 3% sugar, GOL 3%. Here is the method:
Test samples 1 to 12 containing yeast alcohol dehydrogenase (ADH) were prepared as follows and protein-protective activity of various kinds of added sugar under freeze-dried condition was evaluated.
Yeast alcohol dehydrogenase (manufactured by Oriental Yeast Co., Ltd.) was dissolved in water at 1,000 units/mL and then diluted to 6 units/mL with TBS (manufactured by Takara Bio Inc.). 50 μL of TBS containing 2% trehalose (TRH) was added to and mixed with 50 μL of this enzyme solution and the mixture was frozen at −80° C. for 10 minutes. It was then freeze-dried for 20 hours with a freeze dryer (FLEXI-DRY, manufactured by FTS systems INC., Warminster) connected to a vacuum pump (P65D, manufactured by PHIL Sato Vac INC.), preparing freeze-dried product of enzyme with 1% TRH.
Freeze-dried product of enzyme with 3% TRH was prepared in a similar manner to the preparation method of test sample 4 except that the final concentration of trehalose was changed to 3% in the preparation method of test sample 4.
Freeze-dried product of enzyme with 1% 4TA was prepared in a similar manner to the preparation method of test sample 4 except that trehalose was changed to 4-trehalosamine (4TA) in the preparation method of test sample 4.
Freeze-dried product of enzyme with 3% 4TA was prepared in a similar manner to the preparation method of test sample 5 except that trehalose was changed to 4-trehalosamine (4TA) in the preparation method of test sample 5.
Freeze-dried product of enzyme with 1% MLT was prepared in a similar manner to the preparation method of test sample 4 except that trehalose was changed to maltose (MLT) in the preparation method of test sample 4.
Freeze-dried product of enzyme with 3% MLT was prepared in a similar manner to the preparation method of test sample 5 except that trehalose was changed to maltose (MLT) in the preparation method of test sample 5.
Freeze-dried product of enzyme with 1% SCR was prepared in a similar manner to the preparation method of test sample 4 except that trehalose was changed to sucrose (SCR) in the preparation method of test sample 4.
Freeze-dried product of enzyme with 3% SCR was prepared in a similar manner to the preparation method of test sample 5 except that trehalose was changed to sucrose (SCR) in the preparation method of test sample 5.
Freeze-dried product of enzyme with 3% GOL was prepared in a similar manner to the preparation method of test sample 5 except that trehalose was changed to glycerol (GOL) in the preparation method of test sample 5.
The enzyme solution from test sample 1, the freeze-thaw product of enzyme from test sample 2, and the freeze-dried products from test samples 3 to 12 were each diluted to 0.012 units/mL with TBS. 0.5 mM β-NAD^+ (manufactured by Oriental Yeast Co., Ltd.) and 0.62 M ethanol were added, and enzyme reaction was left to take place at room temperature for 1 hour. After the reaction, absorbance at 340 nm was measured with a microplate reader (Cytation5, manufactured by Bio Tek Instruments) (n=3, mean±S.D.). The value of this absorbance at 340 nm was divided by the value of absorbance at 340 nm for the enzyme solution of test sample 1 (control) to determine ADH activity.

In assay [2] the test system is Escherichia coli K-12. Briefly: Evaluation of Escherichia coli protective activity in freeze-dried condition. The assay is classed as cell-based. As to conditions: for Numbers of live bacterial cells (relative numbers): Escherichia coli freeze-dried with 6% aqueous solution (final concentration 3%), test sample 3 (FD) = 1. Here is the method: Using test samples 1 to 8 containing Escherichia coli prepared in the following manner, microorganism-protective activity with various kinds of sugar in a freeze-dried condition was evaluated.
Frozen stock of Escherichia coli (Escherichia coli K-12, owned by the Microbial Chemistry Research Foundation) was inoculated in 10 mL of Luria-Bertani (LB) culture medium (manufactured by Difco) and cultured at 37° C. for 24 hours while shaking it at 220 rpm. After culture, it was centrifuged at 3,000×g for 5 minutes, washed once with 10 mL of water, and then suspended in 10 mL of water, thus obtaining Escherichia coli suspension. 50 μL of water was added to and mixed with 50 μL of this Escherichia coli suspension and the mixture was left to stand at 4° C. for 12 hours, preparing control (NF).
After Escherichia coli suspension was prepared in a similar manner to test sample 1, 50 μL of 6% aqueous solution of trehalose was added to and mixed with 50 μL of the Escherichia coli suspension, and the mixture was frozen at −80° C. for 1 hour. It was then freeze-dried for 12 hours with a freeze dryer (FLEXI-DRY, manufactured by FTS systems INC., Warminster) connected to a vacuum pump (P65D, manufactured by PHIL Sato Vac INC.), preparing freeze-dried product (TRH) of Escherichia coli with TRH.
Freeze-dried product (4TA) of Escherichia coli with 4TA was obtained in a similar manner to the preparation method of test sample 4 except that trehalose was changed to 4-trehalosamine (4TA) in the preparation method of test sample 4.
Freeze-dried product (MLT) of Escherichia coli with MLT was obtained in a similar manner to the preparation method of test sample 4 except that trehalose was changed to maltose (MLT) in the preparation method of test sample 4.
Freeze-dried product (SCR) of Escherichia coli with SCR was obtained in a similar manner to the preparation method of test sample 4 except that trehalose was changed to sucrose (SCR) in the preparation method of test sample 4.
Freeze-dried product (GOL) of Escherichia coli with GOL was obtained in a similar manner to the preparation method of test sample 4 except that trehalose was changed to glycerol (GOL) in the preparation method of test sample 4.
For test samples 1 and 2, serial suspensions were made by diluting them to 1/10 with water. 100 μL of water was added to each of the freeze-dried products of test samples 3 to 8 and diluted to 1/10 with water to make their serial suspensions. 80 μL of water was added to 10 μL of each diluted solution.
In a 6-well microplate, 2% Agar-LB was prepared at 3 mL/well, and 90 μL of each diluted solution was inoculated on the 2% Agar-LB and cultured at 37° C. for 24 hours.
Wells in which the number of colonies was measurable were selected and the numbers (relative numbers) of live bacterial cells per well on test samples 1, 2, and 4 to 8 when the number of live bacterial cells per well on test sample 3 (FD) was “1” were calculated in consideration of the dilution concentrations of those test samples.

Turning to `OC[C@H]1O[C@H](O[C@H]2[C@H](O)[C@@H](O)C(O)O[C@@H]2CO)[C@H](O)[C@@H](O)[C@@H]1O` (mixture of isomers) [maltose], the “ADH activity after freeze-drying” value in assay [1] was “good activity was maintained”. Also, in assay [2], the “Numbers of live bacterial cells (relative numbers)” value (“Numbers … (relative numbers)” below) amounted to 10.
As to `N[C@H]1[C@H](O)[C@@H](O)[C@@H](O[C@H]2O[C@H](CO)[C@@H](O)[C@H](O)[C@H]2O)O[C@@H]1CO` [4-trehalosamine], the “ADH protection effect compared to other sugars” value in assay [1] (freeze-dried) is reported as “high compared to the other sugars”. Also, in assay [1], the “ADH activity after freeze-drying” value is reported as “good activity was maintained”. For the same compound, the “Numbers … (relative numbers)” value in assay [2] came to 100. Besides, the “protective effect on microorganisms, comparison” value in assay [2] (Escherichia coli, freeze-dried) is “stronger than when the other sugars were added”.
Take `OCC(O)CO` [GOL, glycerol]: the “ADH activity after freeze-drying” value in assay [1] is on record as “enzyme activity significantly dropped”. In assay [2], the “Numbers … (relative numbers)” value is 0.
The matching figures for `OC[C@H]1O[C@@](CO)(O[C@H]2O[C@H](CO)[C@@H](O)[C@H](O)[C@H]2O)[C@@H](O)[C@@H]1O` [sucrose]: “good activity was maintained” and 100.
The matching figures for `OC[C@H]1O[C@H](O[C@H]2O[C@H](CO)[C@@H](O)[C@H](O)[C@H]2O)[C@H](O)[C@@H](O)[C@@H]1O` [trehalose, reference compound]: “good activity was maintained” and 10.
